Among the data in publication PMC9697826 (Pharmaceuticals, 2022) are melting point values, retold here.

Broadly, the melting point is the temperature, or range, at which the solid turns liquid. With `Nc1cc(Cc2ccccc2)n[nH]c1=O` [Compound 37d, 4-Amino-6-benzylpyridazin-3(2H)-one], the melting point is 247 to 250 °C.
For `Cn1nc(-c2ccccc2)cc(C(N)=O)c1=O` [Compound 51, 2-Methyl-3-oxo-6-phenyl-2,3-dihydropyridazine-4-carboxamide] the value was 215 to 217 °C; for `NC(=O)Nc1cc(-c2ccccc2)nn(C2CCCCC2)c1=O` [Compound 25b, (2-Cyclohexyl-3-oxo-6-phenyl-2,3-dihydro-pyridazin-4-yl)urea], 261 to 263 °C.
Take `Cn1nc(-c2ccccc2O)cc(NC(N)=O)c1=O` [Compound 43, [6-(2-Hydroxyphenyl)-2-methyl-3-oxo-2,3-dihydropyridazin-4-yl]-urea]: the melting point fell in the range of 278 to 280 °C.
`Cn1nc(-c2ccccn2)cc(NC(N)=O)c1=O` [Compound 49, (2-Methyl-3-oxo-6-pyridin-2-yl-2,3-dihydropyridazin-4-yl)-urea] displayed a melting point greater than 300 °C.
The molecule `Cc1nn(-c2ccccc2)c(=O)c(N)c1C#N` [Compound 17, 5-Amino-3-methyl-6-oxo-1-phenyl-1,6-dihydropyridazine-4-carbonitrile] returned a melting point of 201 to 203 °C.
`NC(=O)Nc1cc(-c2ccccc2O)n[nH]c1=O` [Compound 40, [6-(2-Hydroxy-phenyl)-3-oxo-2,3-dihydro-pyridazin-4-yl]-urea] showed a melting point greater than 300 °C.
In the case of `CC(=O)c1cnn(-c2ccccc2)c(=O)c1N` [Compound 18, 5-Acetyl-4-amino-2-phenylpyridazin-3(2H)-one] it was 181 to 183 °C; in that of `NC(=O)c1c(-c2ccccc2)nn(C2CCCCC2)c(=O)c1N` [Compound 21, 5-Amino-1-cyclohexyl-6-oxo-3-phenyl-1,6-dihydropyridazine-4-carboxylic acid amide], 125 to 128 °C.
In the case of `Cn1nc(-c2ccccc2)cc(N)c1=S` [Compound 32, 4-Amino-2-methyl-6-phenylpyridazine-3(2H)-thione] it was 134 to 135 °C; in that of `CCn1nc(-c2ccccc2)c(C(=O)Nc2ccccc2)c(N)c1=O` [Compound 5a, 5-Amino-1-ethyl-6-oxo-3-phenyl-1,6-dihydropyridazine-4-carboxylic acid phenylamide], 172 to 173 °C.
For `Cn1nc(-c2ccccc2)cc(Nc2cccc(C(N)=O)c2)c1=O` [Compound 31a, 3-(2-Methyl-3-oxo-6-phenyl-2,3-dihydro-pyridazin-4-ylamino)benzamide] the value was 214 to 216 °C; for `CCCC(=O)Nc1cc(-c2ccccc2)nn(C)c1=O` [Compound 29d, N-(2-Methyl-3-oxo-6-phenyl-2,3-dihydro-pyridazin-4-yl)butyramide], 187 to 189 °C; for `Nc1c(C(=O)Nc2ccccc2)c(-c2ccccc2)n[nH]c1=O` [Compound 4a, 5-Amino-6-oxo-3-phenyl-1,6-dihydropyridazine-4-carboxylic acid phenylamide], 228 to 229 °C.
As for `Cn1nc(-c2ccsc2)cc(N)c1=O` [Compound 38a, 4-Amino-2-methyl-6-thiophen-3-yl-pyridazin-3(2H)-one], the melting point lay within 178 to 179 °C.
The molecule `CC(=O)Nc1cc(-c2ccccc2)nn(C)c1=O` [Compound 29a, N-(2-Methyl-3-oxo-6-phenyl-2,3-dihydro-pyridazin-4-yl)acetamide] came in with a melting point of 211 to 212 °C.
For `CCCCn1nc(-c2ccccc2)cc(NC(N)=O)c1=O` [Compound 25f, (2-Butyl-3-oxo-6-phenyl-2,3-dihydro-pyridazin-4-yl)urea] the value was 265 to 267 °C; for `CCCCn1nc(-c2ccccc2)cc(N)c1=O` [Compound 24f, 4-Amino-2-butyl-6-phenylpyridazin-3(2H)-one], 67 to 69 °C; for `Nc1cc(-c2ccsc2)n[nH]c1=O` [Compound 37a, 4-Amino-6-thiophen-3-yl-pyridazin-3(2H)-one], greater than 300 °C.
